# Data from patent US20190029257A1, “APPLICATION FOR HERBICIDE-TOLERANT PROTEIN” (BEIJING DABEINONG TECHNOLOGY GROUP CO., LTD., priority 2016, published 2019).
# Experiments:
# [1] = test system: wild-type Arabidopsis thaliana plants; experiment: Herbicide tolerance of Arabidopsis thaliana plants (spray, resistance classes counted); assay type: in vivo
# Source text: T1 transformants were initially selected from the background of untransformed seeds using a glufosinate selection scheme. About 40000 T1 seeds were screened, and 380 T1 positive transformants (PAT gene) were identified with a transformation efficiency of about 0.95%. The plants that were transformed with the recombinant expression vector DBN100632 were Arabidopsis thaliana plants having an ALT-1-01 nucleotide sequence located in the cytoplasm introduced (At cytoplasmic ALT-1-01), and the plants that were transformed with the recombinant expression vector DBN100631 were Arabidopsis thaliana plants having an ALT-1-01 nucleotide sequence located in the chloroplast introduced (At chloroplastic ALT-1-01); the plants that were transformed with the recombinant expression vector DBN100634 were Arabidopsis thaliana plants having an ALT-2-01 nucleotide sequence located in the cytoplasm introduced (At cytoplasmic ALT-2-01), and the plants that were transformed with the recombinant expression vector DBN100633 were Arabidopsis thaliana plants having an ALT-2-01 nucleotide sequence located in the chloroplast introduced (At chloroplastic ALT-2-01); and the plants that were transformed with the recombinant expression vector DBN100636 were Arabidopsis thaliana plants having an ALT-3-01 nucleotide sequence located in the cytoplasm introduced (At cytoplasmic ALT-3-01), and the plants that were transformed with the recombinant expression vector DBN100635 were Arabidopsis thaliana plants having an ALT-3-01 nucleotide sequence located in the chloroplast introduced (At chloroplastic ALT-3-01). The herbicide tolerance effects of At cytoplasmic ALT-1-01 T1 plants, At chloroplastic ALT-1-01 T1 plants, At cytoplasmic ALT-2-01 T1 plants, At chloroplastic ALT-2-01 T1 plants, At cytoplasmic ALT-3-01 T1 plants, At chloroplastic ALT-3-01 T1 plants and wild-type Arabidopsis thaliana plants on halosulfuron-methyl were detected (14 days after sowing), respectively.
# At cytoplasmic ALT-1-01 T1 plants, At chloroplastic ALT-1-01 T1 plants, At cytoplasmic ALT-2-01 T1 plants, At chloroplastic ALT-2-01 T1 plants, At cytoplasmic ALT-3-01 T1 plants, At chloroplastic ALT-3-01 T1 plants and wild-type Arabidopsis thaliana plants were sprayed with halosulfuron-methyl (34 g ai/ha, 1-fold field concentration) and a blank solvent (water), respectively. Plants were counted for the resistance situations 14 days after spraying: those having a consistent growth status with the blank solvent (water) group after 14 days were classified as highly resistant plants, those having a bolting height less than ½ of that of the blank solvent (water) group after 14 days were classified as moderately resistant plants, those still not capable of bolting after 14 days were classified as poorly resistant plants, and those dead after 14 days were classified as non-resistant plants. Since each Arabidopsis thaliana T1 plant was an independent transformation event, a significant difference in individual T1 responses could be expected at a given dose.
# At cytoplasmic ALT-1-01 T1 plants, At chloroplastic ALT-1-01 T1 plants, At cytoplasmic ALT-2-01 T1 plants, At chloroplastic ALT-2-01 T1 plants, At cytoplasmic ALT-3-01 T1 plants, At chloroplastic ALT-3-01 T1 plants and wild-type Arabidopsis thaliana plants in Example 4 were sprayed with iodosulfuron-methyl (10 g ai/ha, 1-fold field concentration), mesosulfuron (14 g ai/ha, 1-fold field concentration) and oxasulfuron (60 g ai/ha, 1-fold field concentration), respectively, in addition to halosulfuron-methyl (34 g ai/ha, 1-fold field concentration) and the blank solvent (water). […]
# [2] = test system: transgenic soybean plants (ALT-1, ALT-2 and ALT-3); experiment: Halosulfuron-methyl tolerance of soybean plants; assay type: in vivo; conditions: 34 g ai/ha; summary of Table 3
# Method: Gm cytoplasmic ALT-1-01 soybean plants, Gm chloroplastic ALT-1-01 soybean plants, Gm cytoplasmic ALT-2-01 soybean plants, Gm chloroplastic ALT-2-01 soybean plants, Gm cytoplasmic ALT-3-01 soybean plants, Gm chloroplastic ALT-3-01 soybean plants and wild-type soybean plants were respectively taken and sprayed with halosulfuron-methyl (34 g ai/ha, 1-fold field concentration) and a blank solvent (water). The damage degree caused by the herbicide was measured for each plant according to the leaf curl degree and the growth point damage degree 3 days after spraying (3 DAT), 7 days after spraying (7 DAT), 14 days after spraying (14 DAT) and 21 days after spraying (21 DAT), respectively: considering conditions of leaves being flat as the untreated plants and growth points being intact as having a damage degree of 0%; considering conditions of veins being locally browned, new leaves being malformed and plant growth being slow as having a damage degree of 50%; and considering conditions of veins being purple to whole plant being dead and growth points being browned and dry as having a damage degree of 100%. […]
# [3] = 18 g ai/ha (1x Hal.), number of plants 14 days after spraying, Total 32
smiles,measurement,setting,value
"COC(=O)c1c(Cl)nn(C)c1S(=O)(=O)NC(=O)Nc1nc(OC)cc(OC)n1 [halosulfuron-methyl, 3-chlorine-5-(4,6-dimethoxypyrimidine-2-aminocarbonylaminosulphonyl)-1-methylpyrazole-4-carboxylic acid methyl ester]",Highly resistant,[1]; [3],0
same,Moderately resistant,[1]; [3],0
same,Non-resistant,[1]; [3],32
same,Poorly resistant,[1]; [3],0
same,tolerance of the plants to the herbicide,"[1]; 34 g ai/ha, summary of Table 1 and FIG. 4",none of the wild-type Arabidopsis thaliana plants was tolerant
same,tolerance of the plants to the herbicide,[2],high level of halosulfuron-methyl herbicide tolerance
